How the values were obtained:
Test in all cases: Qualitative dye staining on agarose pads (EVOS M7000)
Type in all cases: cell-based
Set-up in all cases: key to Relative fluorescent intensity: Very high: If the cells looked twice as big in the fluorescent channel, it was marked as having “very high” relative fluorescent intensity; High: if the cells looked bigger in the fluorescent channel, it was marked as having “high” relative fluorescent intensity; Medium: If the cells looked almost the same size in the fluorescent channel and the bright field, it was marked as having “medium” relative fluorescent intensity; Low: If the cells looked smaller in the fluorescent channel as compared to the brightfield but still the whole cell was visible, it was marked as having “low” relative fluorescent intensity; Negligible: If only a few traces of a cell was visible in the fluorescent channel, it was marked as having “negligible” relative fluorescent intensity
Details in all cases: DiSC3(5) 3 μM, SYBR Green I 10×, SYTO 13 3 μM, FM4-64 15 μM
Proteus vulgaris = tested on: Proteus vulgaris
Protocol: (§1) An overnight culture was prepared by inoculating a bacterial colony in approximately 5 ml of Urine and incubating the culture in an orbital shaker at 37° C.
(§2) The following media and materials were utilised: Cation-adjusted Mueller Hinton broth (MHB); Phosphate Buffered Saline (PBS); Membrane staining dye—FM4-64 (1.5 mM); Live cell staining dye—DiSC3(5) (1 mM); DNA staining dye—SYBR Green (1000×); DNA staining dye—SYTO 13 (0.5 mM); Ultrapure Agarose; Parafilm; Glass slides and coverslips; Scalpel; and EVOS M7000 fluorescent microscope.
(§3) A pre-cut parafilm or a coverslip was used as a guide and 22 mm×22 mm squares cut from parafilm. A square was cut out of the centre of the parafilm (approximately 10 mm×10 mm). The centre of the cut-out was discarded. Two parafilm gaskets were placed onto a cleaned glass slide. The glass slide was then placed on a dry bath set to 56° C. so that the parafilm adhered to the glass slide. The glass slide was then kept on the dry bath. Using a microwave, ultrapure agarose was dissolved in PBS at a concentration of 1.2%. The agarose solution was kept on a dry bath set at 56° C. 60 μl of the agarose solution was pipetted in the centre of the parafilm gaskets. A coverslip was then placed over the gaskets without applying pressure on the coverslip. The slide was then placed on a cool surface and left to solidify for 1-2 minutes. The coverslips were then gently lifted off the agarose pads.
(§4) In a first Eppendorf, 15 μl of FM4-64 and 6 μl of SYTO 13 was added and in a second Eppendorf 10 μl of SYBR Green and 3 μl of DiSC3(5) was added. Depending on the bacterial growth in urine, an appropriate concentration of the bacterial culture was placed in the two Eppendorfs (final bacterial concentration 10^6 CFU/ml). MHB was added so as to achieve a final volume of 1 ml. Final concentrations of the dyes in the sample was as follows: DiSC3(5): 3 μM; SYBR Green I: 10× (originally supplied as 10,000×); SYTO 13: 3 μM; and FM4-64: 15 μM
(§5) 4 μl of the contents of each Eppendorf were deposited on one agarose pad and the cells distributed across the agar surface by tilting the slide. The slide was left to dry for approximately 1 minute. A coverslip was then placed on top of the agarose pad. The slide was placed inside the microscope and incubated at 37° C. for 10 minutes. Using different light filters for each dye, an image of each pad at 40× magnification on an EVOS M7000 fluorescent microscope was captured. Eight images for each agarose pad was recorded (i.e. 8 each for brightfield and 2 fluorescent channels). For each agarose pad, 24 images were recorded. This corresponded to 48 images in total for each bacterial strain (2 agarose pads per strain). Table A below was used to take the images using the correct fluorescent channel and intensity (for imagining on any other instrument, the LED intensity will need to be normalised against the EVOS M7000).
(§6) To qualitatively calculate the relative fluorescent intensities, cell size was compared between brightfield and the fluorescent channel for a given fluorescent dye. If the cells are very fluorescent, they will appear bigger in the fluorescent channel as compared to the bright field. For our qualitative measurements, if the cells looked bigger in the fluorescent channel, it was marked as having “high” relative fluorescent intensity. If the cells looked twice as big in the fluorescent channel, it was marked as having “very high” relative fluorescent intensity. If the cells looked almost the same size in the fluorescent channel and the bright field, it was marked as having “medium” relative fluorescent intensity. If the cells looked smaller in the fluorescent channel as compared to the brightfield but still the whole cell was visible, it was marked as having “low” relative fluorescent intensity. If only a few traces of a cell was visible in the fluorescent channel, it was marked as having “negligible” relative fluorescent intensity.

Proteus mirabilis = tested on: Proteus mirabilis
Protocol: as §1, §2, §3, §4, §5, §6

Cory. Urealyticum = tested on: Cory. Urealyticum
Protocol: as §1, §2, §3, §4, §5, §6

[1] = Table 8 sample Proteus vulgaris (024)
[2] = Table 8 sample Proteus vulgaris (025)
[3] = Table 8 sample Proteus vulgaris (026)
[4] = Table 7 commercial strain Proteus mirabilis NCTC 10975
[5] = Table 7 commercial strain Proteus mirabilis NCTC 11938
[6] = Table 8 sample Proteus mirabilis (021)
[7] = Table 8 sample Proteus mirabilis (022)
[8] = Table 8 sample Proteus mirabilis (023)
[9] = Table 8 sample Cory. Urealyticum (1001)
[10] = Table 8 sample Cory. Urealyticum (1002)

Row | SMILES | Percentage of cells stained (Proteus vulgaris; [1]) | Relative fluorescent intensity (Proteus vulgaris; [1]) | Percentage of cells stained (Proteus vulgaris; [2]) | Relative fluorescent intensity (Proteus vulgaris; [2]) | Percentage of cells stained (Proteus vulgaris; [3]) | Relative fluorescent intensity (Proteus vulgaris; [3]) | Percentage of cells stained (Proteus mirabilis; [4]) | Relative fluorescent intensity (Proteus mirabilis; [4]) | Percentage of cells stained (Proteus mirabilis; [5]) | Relative fluorescent intensity (Proteus mirabilis; [5]) | Percentage of cells stained (Proteus mirabilis; [6]) | Relative fluorescent intensity (Proteus mirabilis; [6]) | Percentage of cells stained (Proteus mirabilis; [7]) | Relative fluorescent intensity (Proteus mirabilis; [7]) | Percentage of cells stained (Proteus mirabilis; [8]) | Relative fluorescent intensity (Proteus mirabilis; [8]) | Percentage of cells stained (Cory. Urealyticum; [9]) | Relative fluorescent intensity (Cory. Urealyticum; [9]) | Percentage of cells stained (Cory. Urealyticum; [10]) | Relative fluorescent intensity (Cory. Urealyticum; [10])
1 | CCCN(CCCN(C)C)c1cc(/C=C2/Sc3ccccc3N2C)c2ccccc2[n+]1-c1ccccc1 [SYBR Green I, N′,N′-dimethyl-N-[4-[(E)-(3-methyl-1,3-benzothiazol-2-ylidene)methyl]-1-phenylquinolin-1-ium-2-yl]-N-propylpropane-1,3-diamine] | Half | Low | Half | Low | Almost all | Low | Half | Low | Half | Low | Half | Low | Half | Low | Half | Low | Few | Negligible | Few | Negligible
2 | CCCN1C(=CC=CC=Cc2sc3ccccc3[n+]2CCC)Sc2ccccc21.[I-] [DiSC3(5), 3,3′-Dipropylthiadicarbocyanine Iodide] | Almost all | Low | Few | Medium | Almost all | Low | Almost all | Medium | Almost all | Low | Almost all | Low | Almost all | Medium | Almost all | Medium | Few | Negligible | Few | Negligible
3 | CCN(CC)c1ccc(C=CC=CC=Cc2cc[n+](CCC[N+](CC)(CC)CC)cc2)cc1.[Br-].[Br-] [FM 4-64, N-(3-Triethylammoniumpropyl)-4-(6-(4-(Diethylamino) Phenyl) Hexatrienyl) Pyridinium Dibromide] | Few | Negligible | Few | Negligible | Few | Negligible | Few | Negligible | Few | Negligible | Few | Negligible | Few | Negligible | Few | Negligible | Few | Negligible | Few | Negligible

From patent US20250052744A1, “Dyes and Uses Thereof” (The University of Liverpool, priority 2021, published 2025)
